Assay results: US20060142356A1, “Novel therapeutic method and compositions for topical administration” (priority 2003, published 2006)
Read-outs that look alike come from different tables or passages of the source.

Assays:
[1] = Rate of clearance of the drug substance (total systemic clearance); type: in vivo; conditions: human, plasma; in adults
Description: C is expressed in units of ml/hr and is the rate of clearance of the drug substance. Clearance may be determined experimentally in vivo by conventional known means using standard tests. For example it can be determined from the plasma concentration in response to a defined input of drug using the equation given below: Clearance (ml/hr)=Input rate (ng/hr)/Total plasma concentration (ng/ml)

[2] = Peak plasma concentration after oral dosing of farglitazar; type: in vivo, human
Description: Z is expressed in units of ng/ml and is the target local free (i.e. unbound) concentration that is expected to have a therapeutic effect against the skin condition. In the case of PPAR gamma agonists, Z should correspond to the peak plasma free drug concentration generated by dosing these drugs orally to treat effectively Type II diabetes mellitus. The appropriate value of Z may be determined experimentally in vivo by conventional known means using standard protocols.
The value Z for farglitazar is 0.31 ng/ml [Peak plasma concentration for a 5 mg dose is about 157 ng/ml; 0.31 is 157*(100-99.8)/100].

Plasma bound fraction = type: in vitro ADME
Description: PBF is the plasma bound fraction. Plasma bound fraction may be determined experimentally in vitro by conventional known means using standard tests (preferably a method employing equilibrium dialysis).

[3] = system: fasting plasma glucose in patients with type II diabetes; conditions: cited from earlier work

Cc1oc(-c2ccccc2)nc1CCOc1ccc(C[C@H](Nc2ccccc2C(=O)c2ccccc2)C(=O)O)cc1 [farglitazar, N-(2-benzoylphenyl)-O-[2-(5-methyl-2-phenyl-4-oxazolyl)ethyl]-L-tyrosine]
clearance [1]: 250 mL/min | Peak plasma concentration ([2]; 5 mg dose, total drug): about 157 ng/ml | Z, target local free (unbound) concentration = peak plasma free drug concentration ([2]; 157*(100-99.8)/100, 5 mg dose): 0.31 ng/mL | Plasma bound fraction (Plasma bound fraction): 99.8%

CN(CCOc1ccc(CC2SC(=O)NC2=O)cc1)c1ccccn1 (stereo not drawn) [rosiglitazone, 5-[4-[2-(N-methyl-N-(2-pyridyl)amino)ethoxy]benzyl]thiazolidine-2,4-dione]
Time to achieve a reduction of fasting plasma glucose by 2 mmol/l ([3]; 2 mg b.i.d. dosage regimen): about 8 weeks | Time to achieve a reduction of fasting plasma glucose by 2 mmol/l ([3]; 4 mg b.i.d. dosage regimen): about 4 weeks
